Measured values reported in publication PMC7774954, “Interactomic affinity profiling by holdup assay: Acetylation and distal residues impact the PDZome-binding specificity of PTEN phosphatase” (PLoS ONE, 2020).
*1 amine or outer side, *2 acyl side, *3 side chain or, on linkers, in order; H or OH if unused. Where a SMILES comes first, the peptide text is derived from it. The star is where a group is joined. X1 = O=C(CCCC[C@@H]1SC[C@@H]2NC(=O)N[C@@H]21)NCCCOCCOCCOCCCN*; Suc = O=C(CCC(=O)[*:2])[*:1]

How the values were obtained:
SCRIB-3 = biological target: T1, SCRIB-3 (Homo sapiens, UniProt Q14160); experiment: Competitive FP, SCRIB-3; assay type: binding; conditions: SCRIB-3 + 50 nM f16E6
T1 construct: Representative holdup data recorded for three PDZ domains (MAST2-1, HTRA1-1, SCRIB-3); made in house; host or cells: E. coli
T1 sequence (Q14160 1004-1093 limits assumed): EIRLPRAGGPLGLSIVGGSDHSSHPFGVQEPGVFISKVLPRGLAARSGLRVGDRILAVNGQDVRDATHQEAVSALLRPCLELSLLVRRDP
Protocol: Protein concentrations were determined by far-UV absorption spectroscopy. A detailed protocol has been published previously.

LMO7-1 = experiment: Holdup assay, LMO7-1; assay type: binding, human
APBA2-1 = experiment: Holdup assay, APBA2-1; assay type: binding, human
GRIP2-6 = experiment: Holdup assay, GRIP2-6; assay type: binding, human
PTPN13 PDZ 4 = biological target: T2, PTPN13 PDZ 4 (Homo sapiens, UniProt Q12923); experiment: Holdup assay, PTPN13-4; assay type: binding; conditions: for BI: PDZ domain PTPN13-4
T2 construct: made in house; host or cells: E. coli
T2 sequence (Q12923 1788-1868 limits assumed): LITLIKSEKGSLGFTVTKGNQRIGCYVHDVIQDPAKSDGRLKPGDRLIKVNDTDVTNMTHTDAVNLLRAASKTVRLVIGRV
Protocol: The holdup assay was performed on a Tecan freedom Evo200 robot with 384-well plates in singlicate for the three 11-mer PTEN variants and the 13-mer PTEN peptide as described in [31, 32]. Briefly, prior to interaction assay, 2.5 μL of streptavidin resin was saturated in each well with 20 μL of biotinylated PBM peptides (42 μM) and then washed twice with an excess of free biotin, while the reference resin was incubated only with biotin. Right before the holdup experiment, the PDZ library was spiked with an internal standard of lysozyme. Then, the biotin- or PBM-saturated resin was incubated, each in a distinct well of a 384-well plate, with complete cell lysates diluted so that the concentration of the tag-PDZ present in the crude extract is adjusted at 4 μM. After a sufficient time to reach complex equilibrium (15 min.), a fast and mild filtration step is performed and the tag-PDZ concentrations were measured by capillary electrophoresis instrument (LabChip GXII, PerkinElmer, Massachusets, USA). Standard markers were used to convert migration time into molecular weight on the LabChip software and inappropriate molecular weight markers were corrected or excluded.
For filtered data, the BI was extracted with the following equation (Eq 1) that estimates the depleted fraction after superimposition of the sample and reference electropherograms: BI=Iref−Ilig/Iref (1) where Iref and Ilig are the intensities of the tag-PDZ peaks measured, for each PDZ domain/PBM peptide interaction pair, in the biotin reference and the PBM electropherograms, respectively.
BIs were transformed into dissociation constants (KD) using the following formula: KD=([PDZtot]−BI·[PDZtot])·([PBMtot]−BI·[PDZtot])/BI·[PDZtot] (2) where [PDZtot] and [PBMtot] correspond to the total concentrations of the PDZ domain (usually around 4 μM) and the PBM peptide used during the assay. Since the PBMtot concentration in the resin during the holdup assay parameter may differ from one peptide to another and remains unknown, it is impossible to directly convert BI values into KD constants. We systematically determined the KD constants for a subset of PDZ/PBM pairs by competitive FP. […] For each PBM, the average peptide concentration was calculated after outlier rejection based on the absolute distances from the median as compared to three times the standard deviation (3σ rule), with never more than 2 values rejected.

DEPTOR-1 = experiment: Holdup assay, DEPTOR-1; assay type: binding, human
APBA1-1 = experiment: Holdup assay, APBA1-1; assay type: binding, human
CNKSR1-1 = biological target: T3, CNKSR1-1 (Homo sapiens, UniProt Q969H4); experiment: Holdup assay, CNKSR1-1; assay type: binding
T3 sequence (Q969H4 1-720): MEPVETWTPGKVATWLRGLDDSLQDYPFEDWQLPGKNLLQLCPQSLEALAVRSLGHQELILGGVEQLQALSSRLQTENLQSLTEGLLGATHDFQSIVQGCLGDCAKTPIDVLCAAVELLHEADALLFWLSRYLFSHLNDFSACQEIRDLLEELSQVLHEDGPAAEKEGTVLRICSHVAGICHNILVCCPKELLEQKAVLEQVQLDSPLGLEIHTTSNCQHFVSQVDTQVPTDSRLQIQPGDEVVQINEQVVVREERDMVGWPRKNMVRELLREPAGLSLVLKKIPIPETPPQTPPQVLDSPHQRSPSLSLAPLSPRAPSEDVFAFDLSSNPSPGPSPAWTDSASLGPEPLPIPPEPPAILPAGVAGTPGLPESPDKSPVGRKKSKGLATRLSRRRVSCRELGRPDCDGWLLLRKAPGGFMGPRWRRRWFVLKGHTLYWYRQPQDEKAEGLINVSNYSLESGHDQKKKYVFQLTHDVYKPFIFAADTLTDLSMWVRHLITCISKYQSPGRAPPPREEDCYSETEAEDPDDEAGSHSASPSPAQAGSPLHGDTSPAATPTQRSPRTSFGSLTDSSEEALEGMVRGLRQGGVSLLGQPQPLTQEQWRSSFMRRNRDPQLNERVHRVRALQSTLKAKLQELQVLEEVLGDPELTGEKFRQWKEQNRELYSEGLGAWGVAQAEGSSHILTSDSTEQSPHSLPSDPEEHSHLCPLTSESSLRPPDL

MPDZ-10 = MPDZ-10 (Homo sapiens, UniProt O75970); experiment: Holdup assay, MPDZ-10; assay type: binding
CNKSR2-1 = experiment: Holdup assay, CNKSR2-1; assay type: binding, human
GRIP2-2 = experiment: Holdup assay, GRIP2-2; assay type: binding, human
APBA1-2 = APBA1-2 (Homo sapiens, UniProt Q02410); experiment: Holdup assay, APBA1-2; assay type: binding
MAGI1-4 = experiment: Holdup assay, MAGI1-4; assay type: binding, human
GRID2IP-2 = GRID2IP-2 (Homo sapiens, UniProt A4D2P6); experiment: Holdup assay, GRID2IP-2; assay type: binding
DLG2-3 = experiment: Holdup assay, DLG2-3; assay type: binding, human
AHNAK1-1 = experiment: Holdup assay, AHNAK1-1; assay type: binding, human
GIPC3-1 = experiment: Holdup assay, GIPC3-1; assay type: binding, human
LNX1-1 = experiment: Holdup assay, LNX1-1; assay type: binding, human

Chain of MPDZ-10 (O75970 whole entry): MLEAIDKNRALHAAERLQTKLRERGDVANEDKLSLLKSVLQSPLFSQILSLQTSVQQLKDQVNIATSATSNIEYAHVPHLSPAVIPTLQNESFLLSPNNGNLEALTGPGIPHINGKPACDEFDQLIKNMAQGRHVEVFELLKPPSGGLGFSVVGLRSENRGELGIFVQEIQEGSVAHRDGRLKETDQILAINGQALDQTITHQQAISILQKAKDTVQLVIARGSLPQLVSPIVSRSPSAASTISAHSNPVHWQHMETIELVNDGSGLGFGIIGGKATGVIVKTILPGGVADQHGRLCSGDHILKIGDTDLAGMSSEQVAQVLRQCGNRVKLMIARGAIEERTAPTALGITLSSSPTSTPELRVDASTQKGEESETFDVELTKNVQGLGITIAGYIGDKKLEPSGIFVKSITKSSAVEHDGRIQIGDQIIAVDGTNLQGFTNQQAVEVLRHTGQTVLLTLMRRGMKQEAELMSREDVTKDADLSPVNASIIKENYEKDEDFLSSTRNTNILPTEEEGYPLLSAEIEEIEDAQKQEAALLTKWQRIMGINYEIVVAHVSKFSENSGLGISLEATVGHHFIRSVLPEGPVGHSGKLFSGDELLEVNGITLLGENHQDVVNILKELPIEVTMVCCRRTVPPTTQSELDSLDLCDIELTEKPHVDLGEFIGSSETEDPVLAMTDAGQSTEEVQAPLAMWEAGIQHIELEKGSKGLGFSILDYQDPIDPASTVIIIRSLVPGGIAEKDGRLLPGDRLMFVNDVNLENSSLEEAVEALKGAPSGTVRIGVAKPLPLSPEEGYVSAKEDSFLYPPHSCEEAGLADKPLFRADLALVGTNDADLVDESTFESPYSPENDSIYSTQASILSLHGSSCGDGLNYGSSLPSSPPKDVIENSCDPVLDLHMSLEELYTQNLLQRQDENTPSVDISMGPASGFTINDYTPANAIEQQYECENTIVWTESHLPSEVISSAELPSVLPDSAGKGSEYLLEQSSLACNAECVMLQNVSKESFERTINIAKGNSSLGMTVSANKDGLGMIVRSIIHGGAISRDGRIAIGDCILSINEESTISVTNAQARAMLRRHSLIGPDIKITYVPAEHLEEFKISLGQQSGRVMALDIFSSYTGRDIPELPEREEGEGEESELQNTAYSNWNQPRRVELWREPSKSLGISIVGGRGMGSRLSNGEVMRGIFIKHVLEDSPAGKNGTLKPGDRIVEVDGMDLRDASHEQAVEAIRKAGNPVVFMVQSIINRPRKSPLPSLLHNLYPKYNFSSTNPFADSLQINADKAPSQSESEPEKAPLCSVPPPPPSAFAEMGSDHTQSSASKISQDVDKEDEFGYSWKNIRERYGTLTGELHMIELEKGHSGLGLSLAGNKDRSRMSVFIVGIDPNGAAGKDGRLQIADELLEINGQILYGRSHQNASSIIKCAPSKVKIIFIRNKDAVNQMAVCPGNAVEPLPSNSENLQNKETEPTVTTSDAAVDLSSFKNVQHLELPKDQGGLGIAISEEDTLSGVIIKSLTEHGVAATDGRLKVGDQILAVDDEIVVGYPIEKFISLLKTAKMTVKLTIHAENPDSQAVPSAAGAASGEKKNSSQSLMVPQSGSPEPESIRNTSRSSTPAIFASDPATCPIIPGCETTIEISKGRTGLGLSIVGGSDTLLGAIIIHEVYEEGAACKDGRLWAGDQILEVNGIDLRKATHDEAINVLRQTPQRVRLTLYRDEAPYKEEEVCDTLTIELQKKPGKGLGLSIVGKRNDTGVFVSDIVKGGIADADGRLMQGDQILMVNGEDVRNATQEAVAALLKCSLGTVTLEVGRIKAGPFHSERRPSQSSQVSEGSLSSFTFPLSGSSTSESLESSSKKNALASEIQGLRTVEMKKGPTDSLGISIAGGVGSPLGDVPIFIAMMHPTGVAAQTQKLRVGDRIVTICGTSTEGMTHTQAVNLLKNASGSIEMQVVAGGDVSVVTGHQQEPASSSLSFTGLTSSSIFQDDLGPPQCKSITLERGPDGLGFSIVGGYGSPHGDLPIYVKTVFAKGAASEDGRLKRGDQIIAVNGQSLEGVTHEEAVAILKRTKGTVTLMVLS
Chain of GRID2IP-2 (A4D2P6 whole entry): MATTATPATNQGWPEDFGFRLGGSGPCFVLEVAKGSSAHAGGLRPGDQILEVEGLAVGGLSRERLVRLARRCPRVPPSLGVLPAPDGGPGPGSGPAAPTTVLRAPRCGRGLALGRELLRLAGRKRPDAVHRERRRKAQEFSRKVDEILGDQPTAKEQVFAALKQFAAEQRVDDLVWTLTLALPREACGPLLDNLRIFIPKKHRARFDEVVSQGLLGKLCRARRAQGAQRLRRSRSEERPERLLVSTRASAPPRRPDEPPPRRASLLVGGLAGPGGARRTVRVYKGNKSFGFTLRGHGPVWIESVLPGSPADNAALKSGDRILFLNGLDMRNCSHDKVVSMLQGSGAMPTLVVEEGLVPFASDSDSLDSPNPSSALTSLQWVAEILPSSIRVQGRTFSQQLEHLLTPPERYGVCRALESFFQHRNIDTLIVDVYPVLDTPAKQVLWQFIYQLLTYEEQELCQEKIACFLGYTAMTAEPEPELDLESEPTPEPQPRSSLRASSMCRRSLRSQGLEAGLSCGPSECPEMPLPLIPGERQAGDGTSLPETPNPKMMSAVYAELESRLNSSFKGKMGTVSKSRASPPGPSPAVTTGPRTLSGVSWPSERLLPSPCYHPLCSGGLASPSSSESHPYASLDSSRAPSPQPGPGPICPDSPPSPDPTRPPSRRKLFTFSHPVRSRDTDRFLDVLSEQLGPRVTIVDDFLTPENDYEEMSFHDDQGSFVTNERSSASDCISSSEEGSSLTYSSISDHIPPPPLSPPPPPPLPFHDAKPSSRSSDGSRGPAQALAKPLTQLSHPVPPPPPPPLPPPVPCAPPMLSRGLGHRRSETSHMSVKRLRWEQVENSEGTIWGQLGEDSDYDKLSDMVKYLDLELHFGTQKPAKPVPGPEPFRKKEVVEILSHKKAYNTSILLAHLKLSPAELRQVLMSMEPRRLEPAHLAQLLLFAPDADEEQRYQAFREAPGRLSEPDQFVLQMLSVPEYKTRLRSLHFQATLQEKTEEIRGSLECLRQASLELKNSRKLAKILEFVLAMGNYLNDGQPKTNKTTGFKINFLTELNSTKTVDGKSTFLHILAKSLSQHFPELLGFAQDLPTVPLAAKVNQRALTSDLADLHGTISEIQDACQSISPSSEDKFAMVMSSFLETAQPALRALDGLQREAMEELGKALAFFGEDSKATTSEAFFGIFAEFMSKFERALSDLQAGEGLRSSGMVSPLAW
Chain of APBA1-2 (Q02410 747-822): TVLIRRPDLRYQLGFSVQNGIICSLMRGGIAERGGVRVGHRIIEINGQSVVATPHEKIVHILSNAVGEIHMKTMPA

Structure (SMILES): CC[C@H](C)[C@H](NC(=O)[C@H](CCC(N)=O)NC(=O)[C@@H](NC(=O)[C@H](Cc1c[nH]cn1)NC(=O)[C@H](CCC(N)=O)NC(=O)[C@H](CC(=O)O)NC(=O)[C@H](CCC(=O)O)NC(=O)[C@H](CC(=O)O)NC(=O)CCC(=O)NCCCOCCOCCOCCCNC(=O)CCCC[C@@H]1SC[C@@H]2NC(=O)N[C@@H]21)[C@@H](C)O)C(=O)N[C@H](C(=O)N[C@@H](CCCCN)C(=O)N[C@H](C(=O)O)C(C)C)[C@@H](C)O [PTEN_11]
- binding by holdup and competitive FP (in words) (SCRIB-3): non-binding
- BI (LMO7-1): -0.045
- LogKD (LMO7-1): 3.519

Structure (SMILES): CC[C@H](C)[C@H](NC(=O)[C@H](CCC(N)=O)NC(=O)[C@@H](NC(=O)[C@H](Cc1c[nH]cn1)NC(=O)[C@H](CCC(N)=O)NC(=O)[C@H](CC(=O)O)NC(=O)[C@H](CCC(=O)O)NC(=O)[C@H](CC(=O)O)NC(=O)CCC(=O)NCCCOCCOCCOCCCNC(=O)CCCC[C@@H]1SC[C@@H]2NC(=O)N[C@@H]21)[C@@H](C)O)C(=O)N[C@H](C(=O)N[C@@H](CCCCNC(C)=O)C(=O)N[C@H](C(=O)O)C(C)C)[C@@H](C)O [PTEN_Ac]
- BI (APBA2-1): -0.029
- LogKD (APBA2-1): 3.605
- BI (GRIP2-6): -0.084
- LogKD (GRIP2-6): 3.605
- Kd (PTPN13 PDZ 4): 10.4 µM
- BI (PTPN13 PDZ 4): 0.707
- binding of PTPN13-4 (in words) (PTPN13 PDZ 4; PTPN13-4): PTPN13-4 binds to PTEN_Ac
- BI (DEPTOR-1): -0.046
- LogKD (DEPTOR-1): 3.605
- BI (APBA1-1): -0.002
- LogKD (APBA1-1): 3.605
- BI (CNKSR1-1): 0.116
- BI (MPDZ-10): 0.391
- Kd (MPDZ-10): 41.2 µM

Structure (SMILES): CC[C@H](C)[C@H](NC(=O)[C@H](CCC(N)=O)NC(=O)[C@@H](NC(=O)[C@H](Cc1c[nH]cn1)NC(=O)[C@H](CCC(N)=O)NC(=O)[C@H](CC(=O)O)NC(=O)[C@H](CCC(=O)O)NC(=O)[C@H](CC(=O)O)NC(=O)[C@H](Cc1ccccc1)NC(=O)[C@@H]1CCCN1C(=O)CCC(=O)NCCCOCCOCCOCCCNC(=O)CCCC[C@@H]1SC[C@@H]2NC(=O)N[C@@H]21)[C@@H](C)O)C(=O)N[C@H](C(=O)N[C@@H](CCCCN)C(=O)N[C@H](C(=O)O)C(C)C)[C@@H](C)O [PTEN_13] ({X1-Suc}-PFDEDQHTQITKV-OH)
- BI (APBA2-1): 0.029
- BI (GRIP2-6): -0.013
- BI (CNKSR2-1): -0.021
- BI (GRIP2-2): -0.021
- Kd (PTPN13 PDZ 4): 35.8 µM
- BI (PTPN13 PDZ 4): 0.306
- BI (DEPTOR-1): -0.005
- BI (APBA1-2): 0.184
- BI (APBA1-1): -0.05
- BI (MAGI1-4): 0.094
- BI (GRID2IP-2): -0.012
- LogKD (GRID2IP-2): 3.826
- BI (DLG2-3): 0.083
- BI (CNKSR1-1): -0.076
- LogKD (CNKSR1-1): 3.826
- BI (MPDZ-10): 0.493
- Kd (MPDZ-10): 15.5 µM
- BI (AHNAK1-1): -0.053
- BI (GIPC3-1): 0.032
- BI (LNX1-1): 0.021
